# Measured values reported in patent publication US8008298B2, “Pyrrolopyrazine kinase inhibitors” (Roche Palo Alto, priority 2008, dated 2011).
# Counter-ions that a name gives are not always drawn.
row,Compound,melting point [°C]
1,"COc1cc(-c2cnc3[nH]cc(C(=O)NCC(C)OC)c3n2)cc(OC)c1OC (stereo not shown) (as salt: hydrochloride) [Example 24, 2-(3,4,5-Trimethoxy-phenyl)-5H-pyrrolo[2,3-b]pyrazine-7-carboxylic acid (2-methoxy-propyl)-amide]",199 to 200
2,"COc1cc(-c2cnc3[nH]cc(C(=O)NCC(C)(C)CO)c3n2)cc(OC)c1OC [Example 15, 2-(3,4,5-Trimethoxy-phenyl)-5H-pyrrolo[2,3-b]pyrazine-7-carboxylic acid (3-hydroxy-2,2-dimethyl-propyl)-amide]",224 to 225
3,"COc1ccc(-c2cnc3[nH]cc(C(N)=O)c3n2)cc1OC [Example 18, 2-(3,4-Dimethoxy-phenyl)-5H-pyrrolo[2,3-b]pyrazine-7-carboxylic acid amide]",290 to 292.4
4,"COc1cc(-c2cnc3[nH]cc(C(=O)NCC(C)O)c3n2)cc(OC)c1OC (stereo not shown) [Example 22, 2-(3,4,5-Trimethoxy-phenyl)-5H-pyrrolo[2,3-b]pyrazine-7-carboxylic acid (2-hydroxy-propyl)-amide]",201.9 to 202.6
5,"COc1cc(-c2cnc3[nH]cc(C(=O)NC4CCCOC4)c3n2)cc(OC)c1OC (stereo not shown) [Example 23, 2-(3,4,5-Trimethoxy-phenyl)-5H-pyrrolo[2,3-b]pyrazine-7-carboxylic acid (tetrahydro-pyran-3-yl)-amide]",191 to 192
6,"COc1ccc(-c2cnc3[nH]cc(C(=O)NC4CCN(C)C4)c3n2)cc1OC (stereo not shown) [Example 25, 2-(3,4-Dimethoxy-phenyl)-5H-pyrrolo[2,3-b]pyrazine-7-carboxylic acid (1-methyl-pyrrolidin-3-yl)-amide]",193 to 194
7,"COc1ccc(-c2cnc3[nH]cc(C(=O)NC4CCN(C(C)=O)C4)c3n2)cc1OC (stereo not shown) [Example 26, 2-(3,4-Dimethoxy-phenyl)-5H-pyrrolo[2,3-b]pyrazine-7-carboxylic acid (1-acetyl-pyrrolidin-3-yl)-amide]",211 to 212
8,"CC(C)(C)C(=O)c1c[nH]c2ncc(-c3cccc(N4CCCC4)c3)nc12 [Example 33, 2,2-dimethyl-1-[2-(3-pyrrolidin-1-yl-phenyl)-5H-pyrrolo[2,3-b]pyrazin-7-yl]-propan-1-one]",259 to 260
9,"CC1(C(=O)c2c[nH]c3ncc(-c4cccc(N5CCCC5)c4)nc23)CCCCC1 [Example 36, (1-Methyl-cyclohexyl)-[2-(3-pyrrolidin-1-yl-phenyl)-5H-pyrrolo[2,3-b]pyrazin-7-yl]-methanone]",243 to 245.4
10,"COc1cc(-c2cnc3[nH]cc(C(=O)C(C)(CO)CO)c3n2)cc(OC)c1OC [Example 58, 3-Hydroxy-2-hydroxymethyl-2-methyl-1-[2-(3,4,5-trimethoxy-phenyl)-5H-pyrrolo[2,3-b]pyrazin-7-yl]-propan-1-one]",222 to 223
11,"COc1cc(-c2cnc3[nH]cc(C(=O)CC(C)C)c3n2)cc(OC)c1OC [Example 63, 3-methyl-1-[2-(3,4,5-trimethoxy-phenyl)-5H-pyrrolo[2,3-b]pyrazin-7-yl]-butan-1-one]",210 to 211.4
12,"COc1cc(-c2cnc3[nH]cc(C(=O)Cc4ccccc4)c3n2)cc(OC)c1OC [Example 64, 2-phenyl-1-[2-(3,4,5-trimethoxy-phenyl]-5H-pyrrolo[2,3-b]pyrazin-7-yl]-ethanone]",226 to 227
13,"COc1cc(-c2cnc3[nH]cc(C(=O)C(C)(C)C)c3n2)cc(OC)c1OC [Example 67, 2,2-Dimethyl-1-[2-(3,4,5-trimethoxy-phenyl)-5H-pyrrolo[2,3-b]pyrazin-7-yl]-propan-1-one]",240 to 241
14,"COc1cc(-c2cnc3[nH]cc(C(=O)C(C)C)c3n2)cc(OC)c1OC [Example 68, 2-Methyl-1-[2-(3,4,5-trimethoxy-phenyl)-5H-pyrrolo[2,3-b]pyrazin-7-yl]-propan-1-one]",189 to 190
15,"CCOC(C)(OCC)C(=O)c1c[nH]c2ncc(-c3cc(OC)c(OC)c(OC)c3)nc12 [Example 72, 2,2-Diethoxy-1-[2-(3,4,5-trimethoxy-phenyl)-5H-pyrrolo[2,3-b]pyrazin-7-yl]-propan-1-one]",198.2 to 201
16,"COc1cc(-c2cnc3[nH]cc(C(=O)C(=O)N(C)C)c3n2)cc(OC)c1OC [Example 74, N,N-Dimethyl-2-oxo-2-[2-(3,4,5-trimethoxy-phenyl)-5H-pyrrolo[2,3-b]pyrazin-7-yl]-acetamide]",227 to 228
17,"CC(C)(C)C(=O)c1c[nH]c2ncc(-c3cccc(N4CCN(C(=O)CC#N)CC4)c3)nc12 [Example 90, 3-(4-{3-[7-(2,2-Dimethyl-propionyl)-5H-pyrrolo[2,3-b]pyrazin-2-yl]-phenyl}-piperazin-1-yl)-3-oxo-propionitrile]",240 to 242
18,"CC(C)(C)C(=O)c1c[nH]c2ncc(-c3cc(N4CCCC4)cc(N4CCCC4)c3)nc12 [Example 97, 1-[2-(3,5-Di-pyrrolidin-1-yl-phenyl)-5H-pyrrolo[2,3-b]pyrazin-7-yl]-2,2-dimethyl-propan-1-one]",291 to 303
19,"COc1ccc(-c2cnc3[nH]cc(C(=O)C(C)(C)C)c3n2)cc1 [Example 98, 1-[2-(4-Methoxy-phenyl)-5H-pyrrolo[2,3-b]pyrazin-7-yl]-2,2-dimethyl-propan-1-one]",207 to 208

row,Compound,melting point [°C]
1,"COc1ccc(-c2cnc3[nH]cc(C(=O)C(C)(C)C)c3n2)cc1N1CCCC1 [Example 101, 1-[2-(4-Methoxy-3-pyrrolidin-1-yl-phenyl)-5H-pyrrolo[2,3-b]pyrazin-7-yl]-2,2-dimethyl-propan-1-one]",211 to 213
2,"C[S+]([O-])c1ccc(-c2cnc3[nH]cc(C(=O)C(C)(C)C)c3n2)cc1N1CCCC1 (stereo not shown) [Example 107, 1-[2-(4-Methanesulfinyl-3-pyrrolidin-1-yl-phenyl)-5H-pyrrolo[2,3-b]pyrazin-7-yl]-2,2-dimethyl-propan-1-one]",150 to 152
3,"CC(C)(C)C(=O)c1c[nH]c2ncc(-c3cccc(N4CCC(S(C)(=O)=O)C4)c3)nc12 (stereo not shown) [Example 109, 1-{2-[3-(3-Methanesulfonyl-pyrrolidin-1-yl)-phenyl]-5H-pyrrolo[2,3-b]pyrazin-7-yl}-2,2-dimethyl-propan-1-one]",223 to 225
4,"COC1CN(c2cccc(-c3cnc4[nH]cc(C(=O)C(C)(C)C)c4n3)c2)C1 [Example 111, 1-{2-[3-(3-Methoxy-azetidin-1-yl)-phenyl]-5H-pyrrolo[2,3-b]pyrazin-7-yl}-2,2-dimethyl-propan-1-one]",196 to 198
5,"COc1cc(-c2cnc3[nH]cc(C(=O)CCC(C)OC)c3n2)cc(OC)c1OC (stereo not shown) [Example 129, 4-Methoxy-1-[2-(3,4,5-trimethoxy-phenyl)-5H-pyrrolo[2,3-b]pyrazin-7-yl]-pentan-1-one]",150 to 151
6,"COc1cc(-c2cnc3[nH]cc(C(=O)C(C)(C)OC)c3n2)cc(OC)c1OC [Example 131, 2-Methoxy-2-methyl-1-[2-(3,4,5-trimethoxy-phenyl)-5H-pyrrolo[2,3-b]pyrazin-7-yl]-propan-1-one]",237.8 to 239.1
7,"COCC(=O)c1c[nH]c2ncc(-c3cc(OC)c(OC)c(OC)c3)nc12 [Example 132, 2-Methoxy-1-[2-(3,4,5-trimethoxy-phenyl)-5H-pyrrolo[2,3-b]pyrazin-7-yl]-ethanone]",229 to 230
8,"CCOc1cccc(-c2cnc3[nH]cc(C(=O)C(C)(C)C)c3n2)c1 [Example 136, 1-[2-(3-Ethoxy-phenyl)-5H-pyrrolo[2,3-b]pyrazin-7-yl]-2,2-dimethyl-propan-1-one]",195 to 196
9,"CC(C)COc1cccc(-c2cnc3[nH]cc(C(=O)C(C)(C)C)c3n2)c1 [Example 137, 1-[2-(3-Isobutoxy-phenyl)-5H-pyrrolo[2,3-b]pyrazin-7-yl]-2,2-dimethyl-propan-1-one]",177 to 178
10,"CC(C)Oc1cccc(-c2cnc3[nH]cc(C(=O)C(C)(C)C)c3n2)c1 [Example 138, 1-[2-(3-Isopropoxy-phenyl)-5H-pyrrolo[2,3-b]pyrazin-7-yl]-2,2-dimethyl-propan-1-one]",149 to 150
11,"CCCOc1cccc(-c2cnc3[nH]cc(C(=O)C(C)(C)C)c3n2)c1 [Example 139, 2,2-Dimethyl-1-[2-(3-propoxy-phenyl)-5H-pyrrolo[2,3-b]pyrazin-7-yl]-propan-1-one]",179 to 180
12,"CC(C)(C)C(=O)c1c[nH]c2ncc(-c3ccc(S(N)(=O)=O)cc3)nc12 [Example 140, 4-[7-(2,2-Dimethyl-propionyl)-5H-pyrrolo[2,3-b]pyrazin-2-yl]-benzenesulfonamide]",277 to 278
13,"CNS(=O)(=O)c1cccc(-c2cnc3[nH]cc(C(=O)C(C)(C)C)c3n2)c1 [Example 141, 3-[7-(2,2-Dimethyl-propionyl)-5H-pyrrolo[2,3-b]pyrazin-2-yl]-N-methyl-benzenesulfonamide]",245 to 247
14,"CNS(=O)(=O)c1ccc(-c2cnc3[nH]cc(C(=O)C(C)(C)C)c3n2)cc1 [Example 142, 4-[7-(2,2-Dimethyl-propionyl)-5H-pyrrolo[2,3-b]pyrazin-2-yl]-N-methyl-benzenesulfonamide]",278 to 280
15,"CC(C)(C)C(=O)c1c[nH]c2ncc(-c3cccc(CCCO)c3)nc12 [Example 143, 1-{2-[3-(3-Hydroxy-propyl)-phenyl]-5H-pyrrolo[2,3-b]pyrazin-7-yl}-2,2-dimethyl-propan-1-one]",170 to 171
16,"CC(C)(C)C(=O)c1c[nH]c2ncc(-c3cccc(S(N)(=O)=O)c3)nc12 [Example 144, 3-[7-(2,2-Dimethyl-propionyl)-5H-pyrrolo[2,3-b]pyrazin-2-yl]-benzenesulfonamide]",275 to 277
17,"COc1cc(OC)cc(-c2cnc3[nH]cc(C(=O)C(C)(C)C)c3n2)c1 [Example 146, 1-[2-(3,5-Dimethoxy-phenyl)-5H-pyrrolo[2,3-b]pyrazin-7-yl]-2,2-dimethyl-propan-1-one]",206.9 to 207.7
18,"COc1cc(-c2cnc3[nH]cc(C(=O)C4(C)CCCC4)c3n2)cc(OC)c1OC [Example 147, (1-Methyl-cyclopentyl)-[2-(3,4,5-trimethoxy-phenyl)-5H-pyrrolo[2,3-b]pyrazin-7-yl]-methanone]",244 to 246
